# Experimental data from ChEMBL document CHEMBL1121604, “Cerebrovasodilatation through selective inhibition of the enzyme carbonic anhydrase. 2. Imidazo[2,1-b]thiadiazole and imidazo[2,1-b]thiazolesulfonamides” (J Med Chem, 1980).
# Tests used:
# Mus musculus [1] = species on record: Mus musculus; assay: Anticonvulsant potency in mice relative to compound UK-12130 (ED50 of compound 24/compound); assay type: functional
# [2] = pKa of the compound was determined; assay type: physicochemical
# Mus musculus [3] = assay: Protective dose against maximal electroshock in mice after peroral administration; assay type: functional; details: po
# [4] = Partition coefficient (logP); assay type: physicochemical; details: octanol/water
SMILES,Potency ratio (Mus musculus [1]),pKa [2],ED50 (Mus musculus [3]) [mg/kg],logP [4]
NS(=O)(=O)c1nn2cc(-c3ccccc3)nc2s1,0.6,7.12,16,–
NS(=O)(=O)c1nn2c(-c3ccccc3)cnc2s1,0.4,–,> 16,–
CC(C)(C)c1cn2nc(S(N)(=O)=O)sc2n1,3.2,6.94,2.6,–
COc1ccc(-c2cn3nc(S(N)(=O)=O)sc3n2)cc1,<0.6,–,> 16,–
CC(=O)Nc1ccc(-c2cn3nc(S(N)(=O)=O)sc3n2)cc1,<0.4,–,> 16,–
NS(=O)(=O)c1nn2cc(-c3ccc(O)cc3)nc2s1,0.9,8.16,10,–
NS(=O)(=O)c1nn2cc(-c3ccccc3O)nc2s1,<0.6,–,> 16,–
CC(C)(C)c1cn2cc(S(N)(=O)=O)sc2n1,1.7,8.37,7,–
Cc1ccc(-c2cn3nc(S(N)(=O)=O)sc3n2)cc1,<0.6,–,> 16,–
NS(=O)(=O)c1nn2cc(-c3cccs3)nc2s1,<0.4,–,> 16,–
Br.Cc1cn2nc(S(N)(=O)=O)sc2n1,2.2,–,5,–
Br.CCc1nc2sc(S(N)(=O)=O)nn2c1C,1,–,8,–
Br.NS(=O)(=O)c1cn2ccnc2s1,0.7,–,16,–
Br.NS(=O)(=O)C1=NN2C(=NC3CCCCC32)S1 (configuration not stated),<0.5,–,> 16,–
Br.NS(=O)(=O)c1nn2ccnc2s1,1.4,–,8,–
Br.CCc1cn2nc(S(N)(=O)=O)sc2n1,1.6,–,5,–
Br.Cc1cn2cc(S(N)(=O)=O)sc2n1,1.3,–,6,–
Br.Cc1nc2sc(S(N)(=O)=O)nn2c1C,0.6,–,12,–
Br.NS(=O)(=O)c1nn2cc(C34CC5CC(CC(C5)C3)C4)nc2s1,1,–,6,–
CC(=O)Nc1nnc(S(N)(=O)=O)s1 [ACETAZOLAMIDE],–,–,36,–
CC(=O)/N=c1/sc(S(N)(=O)=O)nn1C [METHAZOLAMIDE],0.75,7.2,12,0.2
